Assay results as given in US10383845B2 (priority 2017, dated 2019).
Entries after “also recorded” stand apart in the source; their conditions may differ. Like-named read-outs stand apart in the source and are kept apart here.

Experiments:
[1] = target: Vitamin K Oxide Reductase (Homo sapiens, UniProt Q9BQB6); conditions: cited from earlier work
[2] = tested on: bacteria; conditions: cited from earlier work
[3] = tested on: patients suffering from chronic periodontitis; experiment: Observation of patients suffering from chronic periodontitis under continued systemic medication with Warfarin; format: in vivo, human
From the text: Such observations had not been reported in the medical literature or anywhere else.

[4] = Warfarin in plasma and saliva (oral fluid) of 14 patients undergoing Warfarin therapy (Lomonaco et al. 2014); format: in vivo, human; conditions: inferred from the findings of Lomonaco
[5] = target: T1, human VKOR (Homo sapiens, UniProt Q9BQB6); experiment: Inhibition of the human VKOR by unbound plasma Warfarin; format: in vivo; conditions: converted from ng/ml
T1 construct: from tissue

[6] = tested on: bacterial VKOR of several strains of mycobacteria; conditions: cited from earlier work
[7] = target: T1, human VKOR; conditions: cited from earlier work

Chain of Vitamin K Oxide Reductase (Q9BQB6 whole entry): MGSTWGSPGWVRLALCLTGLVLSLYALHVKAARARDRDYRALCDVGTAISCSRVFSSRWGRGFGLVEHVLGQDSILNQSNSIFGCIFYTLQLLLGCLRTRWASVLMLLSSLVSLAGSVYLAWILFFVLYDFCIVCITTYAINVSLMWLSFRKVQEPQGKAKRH
T1 sequence (Q9BQB6 whole entry): as above

Compound | sensitivity of Vitamin K Oxide Reductase to inhibition [1] | antibacterial properties [2] | buildup of dental plaque and tartar [3] | chronic periodontitis / periodontal disease [3] | frequency and severity of gingival inflammation occurrences [3] | concentration in oral fluid sufficient to be effective [4] | unbound plasma concentration sufficient for effective inhibition of the human VKOR [5] [nM] | concentration at which bacterial VKOR was inhibited [6] [mM] | unbound plasma concentration sufficient for effective inhibition of the human VKOR [7] [ng/mL]
O=c1oc2ccccc2c(O)c1Cc1c(O)c2ccccc2oc1=O [Dicumarol] | highly sensitive to inhibition | marked antibacterial properties |  |  |  |  |  |  | 
CC(=O)CC(c1ccccc1)c1c(O)c2ccccc2oc1=O (stereo not shown) [Warfarin] | highly sensitive to inhibition |  | significant decrease; also recorded: reduced | marked improvement; also recorded: significant reduction | reduction; also recorded: reduced | less than 1×10^−7 M | ~30 | 1.6 to 4.5 | 9 ± 4
